# Assay results taken from ChEMBL document CHEMBL1201862, “PubChem BioAssay data set” (2004).
#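 Where inhibition never reached the appropriate level, the endpoint shown equals the highest concentration tested. Otherwise, values were interpolated linearly from a five-concentration, 48-hour dose response in 96-well plates. At the GI50, growth is halved.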 The source made the active and inactive calls. No stated cut-off is given here; in the data, active = GI50 up to about 1.1 µM and inactive = higher.
# Key:
# Assay in all cases: growth of human tumour cells (NCI), 48 h
# HL-60 = test system: HL-60
# SF-295 = test system: SF-295
# OVCAR-5 = test system: OVCAR-5
# K562 = test system: K562
# SW-620 = test system: SW-620
# HT-29 = test system: HT-29
# SK-MEL-2 = test system: SK-MEL-2
# KM12 = test system: KM12
# NCI-H460 = test system: NCI-H460
# DMS-273 = test system: DMS-273
# COLO 205 = test system: COLO 205
# HOP-62 = test system: HOP-62
# DMS-114 = test system: DMS-114
# NCI-H23 = test system: NCI-H23
# NCI-H226 = test system: NCI-H226
# IGROV-1 = test system: IGROV-1
# SNB-19 = test system: SNB-19
# HCC 2998 = test system: HCC 2998
# NCI-H522 = test system: NCI-H522
# SNB-75 = test system: SNB-75
SMILES,GI50 (HL-60),GI50 (SF-295),GI50 (OVCAR-5),GI50 (K562),GI50 (SW-620),GI50 (HT-29),GI50 (SK-MEL-2),GI50 (KM12),GI50 (NCI-H460),GI50 (DMS-273),GI50 (COLO 205),GI50 (HOP-62),GI50 (DMS-114),GI50 (NCI-H23),GI50 (NCI-H226),GI50 (IGROV-1),GI50 (SNB-19),GI50 (HCC 2998),GI50 (NCI-H522),GI50 (SNB-75)
COc1cc(/C=C/c2ccc(OC)c(OC)c2)oc(=O)c1,> 91.6 µM (inactive),162 µM (inactive),> 250 µM (inactive),> 250 µM (inactive),> 250 µM (inactive),> 250 µM (inactive),> 213 µM (inactive),> 250 µM (inactive),> 230 µM (inactive),> 110 µM (inactive),> 250 µM (inactive),124 µM (inactive),> 182 µM (inactive),203 µM (inactive),> 250 µM (inactive),> 220 µM (inactive),> 218 µM (inactive),> 250 µM (inactive),> 195 µM (inactive),73.3 µM (inactive)
Cc1cccc2ns[s+]c12,36.3 µM (inactive),> 100 µM (inactive),> 100 µM (inactive),29.9 µM (inactive),17.4 µM (inactive),43.1 µM (inactive),–,> 100 µM (inactive),23 µM (inactive),52.4 µM (inactive),> 100 µM (inactive),> 100 µM (inactive),20.5 µM (inactive),> 100 µM (inactive),> 100 µM (inactive),> 100 µM (inactive),66.8 µM (inactive),> 100 µM (inactive),–,59 µM (inactive)
O=NN(CCCl)C(=O)N[C@H]1CC[C@@H](O)CC1,18.2 µM (inactive),24 µM (inactive),> 100 µM (inactive),23.6 µM (inactive),22.6 µM (inactive),60.3 µM (inactive),> 100 µM (inactive),67.5 µM (inactive),28.3 µM (inactive),34.8 µM (inactive),24.4 µM (inactive),46.3 µM (inactive),20.7 µM (inactive),39.5 µM (inactive),34.2 µM (inactive),68.4 µM (inactive),51.2 µM (inactive),81.5 µM (inactive),20.8 µM (inactive),22.6 µM (inactive)
CCOC(=O)Cn1c(=O)c(C)cn(COCCO)c1=O,> 100 µM (inactive),–,> 100 µM (inactive),> 100 µM (inactive),> 100 µM (inactive),> 100 µM (inactive),> 100 µM (inactive),> 100 µM (inactive),> 100 µM (inactive),–,> 100 µM (inactive),> 100 µM (inactive),–,> 100 µM (inactive),0.155 µM (active),> 100 µM (inactive),> 100 µM (inactive),> 100 µM (inactive),> 100 µM (inactive),> 100 µM (inactive)
CCN1CCCC(NCc2c3ccccc3c(CNC3CCCN(CC)C3)c3ccccc23)C1 (stereo not given),7.03 µM (inactive),4.67 µM (inactive),5.96 µM (inactive),7.85 µM (inactive),4.04 µM (inactive),2.6 µM (inactive),5.16 µM (inactive),5.45 µM (inactive),3.65 µM (inactive),5.56 µM (inactive),1.99 µM (inactive),19.6 µM (inactive),4.99 µM (inactive),15.6 µM (inactive),13.4 µM (inactive),16.2 µM (inactive),11.1 µM (inactive),13.1 µM (inactive),2.49 µM (inactive),7.98 µM (inactive)
CN(C)CC(C)(C)/C(=N\Nc1ccccc1)c1ccccc1,21 µM (inactive),21.1 µM (inactive),46.6 µM (inactive),28.1 µM (inactive),29.1 µM (inactive),35.9 µM (inactive),58.1 µM (inactive),43.3 µM (inactive),53.3 µM (inactive),33.5 µM (inactive),64.3 µM (inactive),45.2 µM (inactive),46.7 µM (inactive),> 100 µM (inactive),–,36.4 µM (inactive),> 100 µM (inactive),–,44.3 µM (inactive),37.1 µM (inactive)
CCOC(=O)C1=C(C)N2CCCOC2(C)C(C(=O)OC)C1c1cccc([N+](=O)[O-])c1 (stereo not given),32.1 µM (inactive),45.2 µM (inactive),–,55.2 µM (inactive),> 100 µM (inactive),> 100 µM (inactive),> 100 µM (inactive),49.9 µM (inactive),57.4 µM (inactive),–,> 100 µM (inactive),99.1 µM (inactive),44.8 µM (inactive),> 100 µM (inactive),> 100 µM (inactive),> 100 µM (inactive),> 100 µM (inactive),> 100 µM (inactive),–,13.6 µM (inactive)
Cc1ccc(C2COc3cc(O)c(O)cc3C2)cc1 (stereo not given),1.64 µM (inactive),32.6 µM (inactive),94 µM (inactive),7.28 µM (inactive),11.1 µM (inactive),29.7 µM (inactive),19.2 µM (inactive),22.4 µM (inactive),55.3 µM (inactive),16.2 µM (inactive),12.5 µM (inactive),97.9 µM (inactive),12.7 µM (inactive),23.4 µM (inactive),45.2 µM (inactive),14.6 µM (inactive),39.4 µM (inactive),35.1 µM (inactive),4.06 µM (inactive),42 µM (inactive)
CC(C)NC(=O)OCc1c(CO)c2c(n1C)-c1ccccc1CC2,16.4 µM (inactive),86.9 µM (inactive),80.7 µM (inactive),15.2 µM (inactive),20 µM (inactive),24.5 µM (inactive),37.1 µM (inactive),34.4 µM (inactive),25.5 µM (inactive),26.8 µM (inactive),21 µM (inactive),> 58.3 µM (inactive),18.7 µM (inactive),26.7 µM (inactive),21.7 µM (inactive),27.5 µM (inactive),42.2 µM (inactive),19.9 µM (inactive),16.7 µM (inactive),33 µM (inactive)
